SMILES strings stand for the structures.

For assay [1], the target named is T1, ERK5 (MAPK7) (Homo sapiens, UniProt Q13164). Nature of the assay: FRET-based Z'-LYTE in vitro kinase assay, […] ng ERK5 (ab126913), […] ATP. The assay is classed as biochemical.
Assay [2] concerns the target T1, ERK5 (MAPK7). The assay is described as follows: FRET-based Z'-LYTE in vitro kinase assay, single concentration ([…]), positive control. The assay is classed as biochemical.

T1 sequence (Q13164 2-816): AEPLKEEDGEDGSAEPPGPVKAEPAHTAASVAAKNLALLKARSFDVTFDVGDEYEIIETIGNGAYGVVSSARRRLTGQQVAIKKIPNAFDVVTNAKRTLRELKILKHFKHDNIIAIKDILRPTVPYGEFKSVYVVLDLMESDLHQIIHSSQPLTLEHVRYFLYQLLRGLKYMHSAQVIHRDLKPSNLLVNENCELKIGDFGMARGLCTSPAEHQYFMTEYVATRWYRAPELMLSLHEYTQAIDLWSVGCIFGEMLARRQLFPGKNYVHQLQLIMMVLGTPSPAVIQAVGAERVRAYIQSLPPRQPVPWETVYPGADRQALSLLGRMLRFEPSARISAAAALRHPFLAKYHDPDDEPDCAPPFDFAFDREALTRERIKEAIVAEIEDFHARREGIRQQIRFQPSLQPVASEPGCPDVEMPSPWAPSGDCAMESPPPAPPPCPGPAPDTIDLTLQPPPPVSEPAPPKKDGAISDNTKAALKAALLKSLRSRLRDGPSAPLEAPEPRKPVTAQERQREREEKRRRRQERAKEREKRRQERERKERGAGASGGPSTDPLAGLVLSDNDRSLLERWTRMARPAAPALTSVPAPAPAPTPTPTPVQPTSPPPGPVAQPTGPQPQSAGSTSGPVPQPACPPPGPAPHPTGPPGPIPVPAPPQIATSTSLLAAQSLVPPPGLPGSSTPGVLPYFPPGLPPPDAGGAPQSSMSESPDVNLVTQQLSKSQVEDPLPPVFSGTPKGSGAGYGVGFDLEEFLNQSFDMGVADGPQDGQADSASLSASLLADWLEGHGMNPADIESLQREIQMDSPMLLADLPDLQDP

Regarding `CC(C)CCOc1cc(C(=O)C[n+]2cn(CCC(C)C)c3ccccc32)c(OCCC(C)C)c2ccccc12` [MHJ-627, 3-(2-(1,4-bis(isopentyloxy)naphthalen-2-yl)-2-oxoethyl)-1-isopentyl-1H-benzo[d]imidazol-3-ium bromide], on ERK5 (MAPK7) [1], the concentration for half-maximal inhibition (IC50) (as a rule, the point on the concentration scale where inhibition reaches its midpoint) stood at 910 nM.

Regarding `CCOc1cc(N2CCC(O)CC2)ccc1Nc1ncc2c(n1)N(C)c1ccccc1C(=O)N2C` [XMD8-92], at ERK5 (MAPK7) [2], 5 µM produced 56% inhibition.

Source of the values: PMC10377775, “Identification of a Novel ERK5 (MAPK7) Inhibitor, MHJ-627, and Verification of Its Potent Anticancer Efficacy in Cervical Cancer HeLa Cells” (Current Issues in Molecular Biology, 2023).
